IC50 data for 30 compounds are collected here from patent US12410160B2 (Gilead Sciences, Inc., priority 2021, dated 2025).

Bounds are passed on as bounds.

By IC50 is commonly meant the concentration needed to halve the response being measured. Higher therefore signals a need for much substance.

For one assay, the target named is human KHK-A (Homo sapiens (Human), UniProt P50053). As to the kind of experiment: KHK Biochemical Assay (IC50), ADP-Glo, KHK-A. The settings on record: ADP-Glo; average of at least two separate assays. On the procedure:
(§1) The His-tagged fusion protein was expressed using BL21 (DE3) with IPTG induction and purified using Ni-NTA column followed by dialysis into final buffer containing 25 mM Tris-HCl pH 8.0, 250 mM NaCl.
(§2) KHK Biochemical Assay (IC50)
(§3) Compounds were tested for KHK enzyme inhibition in a high-throughput 384-well assay format using the ADP-Glo assay (Promega) in buffer consisting of 50 mM Hepes (pH 7.4), 140 mM KCl, 5 mM MgCl2 and 0.01% Triton-X. 0.2 nM. […] Compounds were serially diluted (1:3) in DMSO.
(§4) The compounds were pre-incubated with 5 μL of 2× final enzyme concentration for 30 minutes before adding 5 μL of 2× final concentration of ATP and fructose. The plates were incubated at room temperature for 4 hours before adding ADP-Glo reagent to quench the enzyme reaction, followed by incubation at room temperature for 1 hour. The ADP-Glo detection reagent was then added to the plates and luminescence was measured on the Envision plate reader after 1 hour.

The target of the next assay is human KHK-C (Homo sapiens (Human), UniProt P50053). As to the kind of experiment: KHK Biochemical Assay (IC50), ADP-Glo, KHK-C. The settings on record: ADP-Glo; average of at least two separate assays. On the procedure:
as §1, §2, §3, §4
On the technique in general: ADP-Glo first removes unused ATP, then detects ADP through luciferase.

Chain of human KHK-A (P50053 other isoform, or with tags, fused parts or gaps): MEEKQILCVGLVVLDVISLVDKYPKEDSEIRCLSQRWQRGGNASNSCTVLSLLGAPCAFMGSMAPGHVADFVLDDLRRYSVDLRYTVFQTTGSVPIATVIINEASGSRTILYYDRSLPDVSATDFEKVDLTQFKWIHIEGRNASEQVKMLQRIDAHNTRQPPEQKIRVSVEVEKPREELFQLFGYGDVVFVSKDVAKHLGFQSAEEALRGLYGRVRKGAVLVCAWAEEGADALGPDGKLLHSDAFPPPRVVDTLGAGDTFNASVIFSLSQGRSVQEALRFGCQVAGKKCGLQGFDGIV
Chain of human KHK-C (P50053 whole entry): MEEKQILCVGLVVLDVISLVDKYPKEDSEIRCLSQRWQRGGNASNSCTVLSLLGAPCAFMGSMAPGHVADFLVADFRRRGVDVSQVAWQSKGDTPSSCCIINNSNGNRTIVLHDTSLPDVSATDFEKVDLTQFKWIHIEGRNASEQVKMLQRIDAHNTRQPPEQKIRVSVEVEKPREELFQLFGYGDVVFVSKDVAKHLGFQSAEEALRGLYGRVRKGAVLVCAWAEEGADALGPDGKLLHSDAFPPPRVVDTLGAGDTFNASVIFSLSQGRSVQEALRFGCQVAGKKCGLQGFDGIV

Consider `C[C@H]1CCN1c1nc(-c2ccccc2)c2occc2n1` [Example 12, (S)-2-(2-methylazetidin-1-yl)-4-phenylfuro[3,2-d]pyrimidine], for which the concentration for half-maximal inhibition (IC50) at human KHK-A was found to be 2620 nM; against human KHK-C, 2600 nM.

For the compound `C[C@H]1CCN1c1nc2c(c(-c3ccn(CCC(=O)O)n3)n1)CCC2` [Example 24, (S)-3-(3-(2-(2-methylazetidin-1-yl)-6,7-dihydro-5H-cyclopenta[d]pyrimidin-4-yl)-1H-pyrazol-1-yl)propanoic acid], the concentration for half-maximal inhibition (IC50) against human KHK-A came to 615 nM; on human KHK-C, 420 nM.

Consider `C[C@H]1CCN1c1nc2c(c(-c3cnn(CCC(=O)O)c3)n1)CCC2` [Example 25, (S)-3-(4-(2-(2-methylazetidin-1-yl)-6,7-dihydro-5H-cyclopenta[d]pyrimidin-4-yl)-1H-pyrazol-1-yl)propanoic acid], for which the IC50 is 142 nM against human KHK-A and 104 nM at human KHK-C.

As to `C[C@H]1CCN1c1nc(-c2ccccc2)c2ncsc2n1` [Example 26, (S)-5-(2-methylazetidin-1-yl)-7-phenylthiazolo[5,4-d]pyrimidine], the values for the IC50 on human KHK-A and on human KHK-C were 1860 nM and 1540 nM, respectively.

Take `C[C@H]1CCN1c1nc2c(c(-c3ccccc3)n1)CC(C1CC1)C2` (stereo partly drawn) [Example 30, 6-cyclopropyl-2-((S)-2-methylazetidin-1-yl)-4-phenyl-6,7-dihydro-5H-cyclopenta[d]pyrimidine]: the IC50 against human KHK-A and at human KHK-C was above 50000 nM throughout.

With `C[C@H]1CCN1c1nc(-c2ccccc2)c2c(n1)C1CCC2C1` (stereo partly drawn) [Example 31, 2-((S)-2-methylazetidin-1-yl)-4-phenyl-5,6,7,8-tetrahydro-5,8-methanoquinazoline], the values for the half-maximal inhibitory concentration (IC50) on human KHK-A and on human KHK-C were 935 nM and 1480 nM, respectively.

With `C[C@H]1[C@H](O)CN1c1nc2c(c(-c3cccc(C(N)=O)c3)n1)CCC2` [Example 32], the half-inhibitory concentration (IC50) at human KHK-A is 86.8 nM; on human KHK-C, 125 nM.

Consider `C[C@H]1CCN1c1nc(-c2cccc(C(N)=O)c2)c2c(n1)C1CCC2C1` (stereo partly drawn) [Example 33, 3-(2-((S)-2-methylazetidin-1-yl)-5,6,7,8-tetrahydro-5,8-methanoquinazolin-4-yl)benzamide], for which the half-inhibitory concentration (IC50) against human KHK-A worked out at 272 nM; at human KHK-C, 240 nM.

Take `C[C@H]1CCN1c1nc(-c2cn[nH]c2)c2c(cnn2C)n1` [Example 35, (S)-1-methyl-5-(2-methylazetidin-1-yl)-7-(1H-pyrazol-4-yl)-1H-pyrazolo[4,3-d]pyrimidine]: the IC50 is 189 nM at human KHK-A and 220 nM against human KHK-C.

As for `C[C@H]1CCN1c1nc(-c2cccc(S(N)(=O)=O)c2)c2c(cnn2C)n1` [Example 37, (S)-3-(1-methyl-5-(2-methylazetidin-1-yl)-1H-pyrazolo[4,3-d]pyrimidin-7-yl)benzenesulfonamide], the half-inhibitory concentration (IC50) on human KHK-A was 224 nM; on human KHK-C it was 213 nM.

As to `CC(=O)Nc1cccc(-c2nc(N3CC[C@@H]3C)nc3c2CCC3)c1` [Example 40, (S)—N-(3-(2-(2-methylazetidin-1-yl)-6,7-dihydro-5H-cyclopenta[d]pyrimidin-4-yl)phenyl)acetamide], the IC50 against human KHK-A was 54.3 nM; on human KHK-C it was 57 nM.

Consider `C[C@H]1CCN1c1nc2c(c(-c3cccc(NS(C)(=O)=O)c3)n1)CCC2` [Example 42, (S)—N-(3-(2-(2-methylazetidin-1-yl)-6,7-dihydro-5H-cyclopenta[d]pyrimidin-4-yl)phenyl)methanesulfonamide], for which the values for the IC50 against human KHK-A and at human KHK-C were 31.8 nM and 22.7 nM, respectively.

For the compound `C[C@H]1CCN1c1nc2c(c(-c3cccs3)n1)CCC2` [Example 45, (S)-2-(2-methylazetidin-1-yl)-4-(thiophen-2-yl)-6,7-dihydro-5H-cyclopenta[d]pyrimidine], the IC50 was 118 nM against human KHK-A and 108 nM against human KHK-C.

With `C[C@H]1CCN1c1nc2c(c(-c3cccc(C4CC4C(=O)O)c3)n1)CCC2` (stereo partly drawn) [Example 46, 2-(3-(2-((S)-2-methylazetidin-1-yl)-6,7-dihydro-5H-cyclopenta[d]pyrimidin-4-yl)phenyl)cyclopropane-1-carboxylic acid], the values for the IC50 on human KHK-A and against human KHK-C were 10 nM and 7.6 nM, respectively.

With `C[C@H]1CCN1c1nc2c(c(-c3ccc(C#N)s3)n1)CCC2` [Example 49, (S)-5-(2-(2-methylazetidin-1-yl)-6,7-dihydro-5H-cyclopenta[d]pyrimidin-4-yl)thiophene-2-carbonitrile], the IC50 at human KHK-A was determined as 125 nM; against human KHK-C, 222 nM.

With `C[C@H]1CCN1c1nc2c(c(-c3cccc(C(=O)NCCNC(=O)OC(C)(C)C)c3)n1)CCC2` [Example 51, tert-butyl (S)-(2-(3-(2-(2-methylazetidin-1-yl)-6,7-dihydro-5H-cyclopenta[d]pyrimidin-4-yl)benzamido)ethyl)carbamate], the results for the IC50 against human KHK-A and on human KHK-C were 144 nM and 309 nM, respectively.

Regarding `C[C@H]1CCN1c1nc2c(c(-c3cccc(C(=O)NCCN)c3)n1)CCC2` [Example 52, (S)—N-(2-aminoethyl)-3-(2-(2-methylazetidin-1-yl)-6,7-dihydro-5H-cyclopenta[d]pyrimidin-4-yl)benzamide], the IC50 at human KHK-A came to 22.2 nM; on human KHK-C, 42.7 nM.

Consider `CNCCNC(=O)c1cccc(-c2nc(N3CC[C@@H]3C)nc3c2CCC3)c1` [Example 53, (S)—N-(2-(methylamino)ethyl)-3-(2-(2-methylazetidin-1-yl)-6,7-dihydro-5H-cyclopenta[d]pyrimidin-4-yl)benzamide], for which the IC50 on human KHK-A came out at 130 nM; at human KHK-C, 194 nM.

In the case of `C[C@H]1CCN1c1nc2c(c(-c3cccc(S(=O)(=O)NCCO)c3)n1)CCC2` [Example 54, (S)—N-(2-hydroxyethyl)-3-(2-(2-methylazetidin-1-yl)-6,7-dihydro-5H-cyclopenta[d]pyrimidin-4-yl)benzenesulfonamide], the IC50 came out at 42 nM against human KHK-A and 40.4 nM against human KHK-C.

For `C[C@H]1CCN1c1nc2c(c(-c3ccc(-c4ccccc4)nc3)n1)CCC2` [Example 55, (S)-2-(2-methylazetidin-1-yl)-4-(6-phenylpyridin-3-yl)-6,7-dihydro-5H-cyclopenta[d]pyrimidine], the concentration for half-maximal inhibition (IC50) on human KHK-A is 1080 nM; against human KHK-C, 801 nM.

`C[C@H]1CCN1c1nc2c(c(-c3ccc(C(N)=O)s3)n1)CCC2` [Example 56, (S)-5-(2-(2-methylazetidin-1-yl)-6,7-dihydro-5H-cyclopenta[d]pyrimidin-4-yl)thiophene-2-carboxamide]: the half-inhibitory concentration (IC50) on human KHK-A is 3.8 nM; against human KHK-C, 7.7 nM.

With `C[C@H]1CCN1c1nc2c(c(-c3cccc(C(=O)NCCO)c3)n1)CCC2` [Example 61, (S)—N-(2-hydroxyethyl)-3-(2-(2-methylazetidin-1-yl)-6,7-dihydro-5H-cyclopenta[d]pyrimidin-4-yl)benzamide], the figures for the IC50 at human KHK-A and against human KHK-C were 56.8 nM and 90.3 nM, respectively.

Regarding `C[C@H]1CCN1c1nc(-c2cccc(C(N)=O)c2)c2c(n1)[C@H]1CC[C@@H]2C1` [Example 62, 3-((5R,8S)-2-((S)-2-methylazetidin-1-yl)-5,6,7,8-tetrahydro-5,8-methanoquinazolin-4-yl)benzamide], the values for the IC50 at human KHK-A and at human KHK-C were 1920 nM and 2930 nM, respectively.

Turning to `C[C@H]1CCN1c1nc2c(c(-c3cccc(C(=O)Nc4cn[nH]c4)c3)n1)CCC2` [Example 64, (S)-3-(2-(2-methylazetidin-1-yl)-6,7-dihydro-5H-cyclopenta[d]pyrimidin-4-yl)-N-(1H-pyrazol-4-yl)benzamide], the IC50 on human KHK-A was found to be 52.7 nM; on human KHK-C, 107 nM.

On to `C[C@H]1CCN1c1nc2c(c(-c3cccc(C(=O)Nc4cc[nH]n4)c3)n1)CCC2` [Example 65, (S)-3-(2-(2-methylazetidin-1-yl)-6,7-dihydro-5H-cyclopenta[d]pyrimidin-4-yl)-N-(1H-pyrazol-3-yl)benzamide], for which the IC50 stood at 150 nM at human KHK-A and 245 nM at human KHK-C.

As for `C[C@H]1CCN1c1nc2c(c(-c3cccc(C(=O)NC4(C(=O)O)CC4)c3)n1)CCC2` [Example 67, (S)-1-(3-(2-(2-methylazetidin-1-yl)-6,7-dihydro-5H-cyclopenta[d]pyrimidin-4-yl)benzamido)cyclopropane-1-carboxylic acid], the 50% inhibitory concentration (IC50) was found to be 128 nM at human KHK-A and 140 nM at human KHK-C.

With `C[C@H]1CCN1c1nc2c(c(-c3cccc(C(=O)N4CC(C(=O)O)C4)c3)n1)CCC2` [Example 68, (S)-1-(3-(2-(2-methylazetidin-1-yl)-6,7-dihydro-5H-cyclopenta[d]pyrimidin-4-yl)benzoyl)azetidine-3-carboxylic acid], the concentration for half-maximal inhibition (IC50) was found to be 94.3 nM on human KHK-A and 45.1 nM on human KHK-C.

On to `C[C@H]1CCN1c1nc2c(c(-c3cccc(C(=O)N4CC(CC(=O)O)C4)c3)n1)CCC2` [Example 69, (S)-2-(1-(3-(2-(2-methylazetidin-1-yl)-6,7-dihydro-5H-cyclopenta[d]pyrimidin-4-yl)benzoyl)azetidin-3-yl)acetic acid], for which the IC50 against human KHK-A came to 286 nM; at human KHK-C, 145 nM.

In the case of `C[C@H]1CCN1c1nc2c(c(-c3cccc(N)c3)n1)CCC2` [Example 71, (S)-3-(2-(2-methylazetidin-1-yl)-6,7-dihydro-5H-cyclopenta[d]pyrimidin-4-yl)aniline], the IC50 at human KHK-A was found to be 107 nM; against human KHK-C it was 104 nM.

On to `C[C@H]1CCN1c1nc2c(c(-c3cccc(NS(=O)(=O)c4cn(C)cn4)c3)n1)CCC2` [Example 73, (S)-1-methyl-N-(3-(2-(2-methylazetidin-1-yl)-6,7-dihydro-5H-cyclopenta[d]pyrimidin-4-yl)phenyl)-1H-imidazole-4-sulfonamide], for which the figures for the IC50 on human KHK-A and against human KHK-C were 175 nM and 156 nM, respectively.
